The structures appear in SMILES notation.

This passage reports IC50 and EC50 results from US20260070929A1, “METHODS AND COMPOSITIONS FOR MODULATING KRAS(G12D)” (Ranok Therapeutics (Hangzhou) Co. LTD., priority 2022, published 2026).

One test has as its target T1, KRAS(G12D)/SOS1 (Homo sapiens, UniProt P01116, G12D).
T1 construct: purchased Cisbio 63ADK000CB17PEH
Kind of test: KRAS(G12D)/SOS1 homogeneous time-resolved fluorescence (HTRF) assay. The format is binding. To be noted: absence of GTP; 4° C., 3 hr. The method, boiled down: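 Disruption of the KRAS(G12D)/SOS1 pairing, in the absence of GTP, was read by time-resolved FRET after a 3 hr sealed incubation at 4 °C. Test compounds spanned 20 µM down to 1.02 nM in 3-fold steps. IC50 values correspond to half-maximal inhibition.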

The subject of test [1] is SW1990 pancreatic adenocarcinoma cells [homozygous G12D]. In words: Cancer cell line proliferation (CellTiter-Glo), SW1990. The test is classed as cell-based. To be noted: Homo sapiens, 72 hr treatment, read-out: SW1990 CTG (EC50). The method, then: The following cancer cell lines were employed: AGS gastric carcinoma [heterozygous G12D](ATCC, CRL-1739); A-427 lung carcinoma [heterozygous G12D](ATCC, HTB-53); ASPC1 pancreatic adenocarcinoma [homozygous G12D](ATCC, CRL-1682) and SW1990 pancreatic adenocarcinoma [homozygous G12D](ATCC CRL-2172). Cell lines were cultured essentially according to ATCC recommendations.
AGS, A-427, ASPC1, SW1990, and GP2D cells were plated in 96-well tissue culture plates at 4,000 cells/well and incubated at 37° C./5% CO2 for 72 hr in 100 μl of media. 3-fold serial dilutions of each test compound were prepared ranging from 20 μM to 1.02 nM. Each cell line was then treated with test compounds at various concentrations with a final concentration of 0.5% DMSO/well, and then incubated at 37° C./5% CO2 for 72 hr. 100 µl of CellTiter-Glo® Reagent (Promega Corporation, Madison, WI) was added to each well and processed according manufacturer's protocol. Results were analyzed and EC50 values were calculated in GraphPad 7 software.

Test [2] relates to AGS gastric carcinoma cells [heterozygous G12D]. In words: Cancer cell line proliferation (CellTiter-Glo), AGS. The conditions noted are these: Homo sapiens, 72 hr treatment, read-out: AGS CTG (EC50). The format is cell-based. The method, boiled down:
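4,000 cells/well; 72 hr pre-culture, 37° C./5% CO2. Cpd: 3-fold series, 20 μM–1.02 nM as prepared, 0.5% DMSO final; 72 hr exposure. Readout CellTiter-Glo; EC50 fit.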

T1 sequence (P01116 1-188 isoform P01116-2 G12D): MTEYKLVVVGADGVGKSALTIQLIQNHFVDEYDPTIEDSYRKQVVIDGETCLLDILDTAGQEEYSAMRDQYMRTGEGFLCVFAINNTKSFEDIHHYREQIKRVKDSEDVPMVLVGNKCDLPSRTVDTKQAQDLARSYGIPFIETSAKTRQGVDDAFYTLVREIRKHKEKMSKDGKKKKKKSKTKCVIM

On KRAS(G12D)/SOS1, `C#Cc1c(F)ccc2cc(O)cc(-c3ncc4c(N5CC6CNC(C6)C5)nc(OCC5(CN6CCC(C7CCN(Cc8ccc(-n9c(C(=O)NC(C)C(F)(F)F)nnc9-c9cc(C(C)C)c(O)cc9O)cc8)CC7)CC6)CC5)nc4c3F)c12` (stereo not drawn) [Compound 185] came in with an IC50 of 100 to 1000 nM. For the same compound, the EC50 in test [1] and in test [2] was 100 to 1000 nM in each case.

`C#Cc1c(F)ccc2cc(O)cc(-c3nc(OC)c4c(N5CC6CNC(C6)C5)nc(OCC5(CN6CCN(Cc7ccc(-n8c(C(=O)NCC)nnc8-c8cc(C(C)C)c(O)cc8O)cc7)CC6)CC5)nc4c3F)c12` (stereo not drawn) [Compound 189]: the IC50 at KRAS(G12D)/SOS1 is under 100 nM. Besides, the half-maximal effective concentration (EC50) in test [1] and in test [2] was under 100 nM each time.

Consider `C#Cc1c(F)ccc2cc(O)cc(-c3ncc4c(N5CC6CCC(C5)N6)nc(OCC5(CN6CCC7(CCN(Cc8ccc9c(c8)CN(C(=O)c8cc(C(C)C)c(O)cc8O)C9)CC7)CC6)CC5)nc4c3F)c12` [Compound 184], for which, on KRAS(G12D)/SOS1, the 50% inhibitory concentration (IC50) was under 100 nM. In addition, the EC50 in test [1] and in test [2] was under 100 nM in each case.

As for `C#Cc1c(F)ccc2cc(O)cc(-c3ncc4c(N5CC6CCC(C5)N6)nc(OCC5CN(CC6(CNc7ccc8c(c7)CN(C(=O)c7cc(C(C)C)c(O)cc7O)C8)CC6)C5)nc4c3F)c12` [Compound 194], the concentration for half-maximal inhibition (IC50) on KRAS(G12D)/SOS1 was under 100 nM. Besides, the EC50 in test [1] and in test [2] was 100 to 1000 nM in each case.

`C#Cc1c(F)ccc2cc(O)cc(-c3nc(OC)c4c(N5CC6CCC(C5)N6)nc(OCC5(CN6CCN(CC7CCN(Cc8ccc(-n9c(C(=O)NCC)nnc9-c9cc(C(C)C)c(O)cc9O)cc8)CC7)CC6)CC5)nc4c3F)c12` [Compound 169] came in with an IC50 on KRAS(G12D)/SOS1 of under 100 nM. Moreover, the EC50 in test [1] and in test [2] was under 100 nM throughout.

The compound `C#Cc1c(F)ccc2cc(O)cc(-c3ncc4c(N5CC6CCC(C5)N6)nc(OCC5(CN6CCN(C7CN(Cc8ccc(-n9c(C(=O)NC(C)C(F)(F)F)nnc9-c9cc(C(C)C)c(O)cc9O)cc8)C7)CC6)CC5)nc4c3F)c12` (stereo not drawn) [Compound 167] gave an IC50 on KRAS(G12D)/SOS1 of under 100 nM. Moreover, the EC50 in test [1] and in test [2] was under 100 nM in each case.

At KRAS(G12D)/SOS1, `C#Cc1c(F)ccc2cc(O)cc(-c3nc(OC)c4c(N5CC6CCC(C5)N6)nc(OCC5(CN6CCN(CC7CCN(Cc8ccc(-n9c(C(=O)NCC(F)(F)F)nnc9-c9cc(C(C)C)c(O)cc9O)cc8)CC7)CC6)CC5)nc4c3F)c12` [Compound 168] yielded an IC50 of under 100 nM. Moreover, the EC50 in test [1] and in test [2] was under 100 nM throughout.

Compound `C#Cc1c(F)ccc2cc(O)cc(-c3nc(OC)c4c(N5CC6CCC(C5)N6)nc(OCC5(CN6CCC(C7CCN(Cc8ccc(-n9c(C(=O)NC(C)C(F)(F)F)nnc9-c9cc(C(C)C)c(O)cc9O)cc8)CC7)CC6)CC5)nc4c3F)c12` (stereo not drawn) [Compound 182] yielded a half-inhibitory concentration (IC50) at KRAS(G12D)/SOS1 of under 100 nM. Moreover, the EC50 in test [1] and in test [2] was under 100 nM each time.

`C#Cc1c(F)ccc2cc(O)cc(-c3nc(OC)c4c(N5CC6CCC(C5)N6)nc(OCC5(CN6CCN(Cc7ccc8c(c7)CN(C(=O)c7cc(C(C)C)c(O)cc7O)C8)CC6)CC5)nc4c3F)c12` [Compound 190] had an IC50 at KRAS(G12D)/SOS1 of under 100 nM. The EC50 in test [1] and in test [2] was under 100 nM in each case.

`C#Cc1c(F)ccc2cc(O)cc(-c3ncc4c(N5CC6CCC(C5)N6)nc(OCC5(CN6CCN(C7CN(Cc8ccc9c(c8)CN(C(=O)c8cc(C(C)C)c(O)cc8O)C9)C7)CC6)CC5)nc4c3F)c12` [Compound 177] registered an IC50 against KRAS(G12D)/SOS1 of under 100 nM. Also, the EC50 in test [1] and in test [2] was under 100 nM throughout.

Consider `C#Cc1c(F)ccc2cc(O)cc(-c3ncc4c(N5CC6CCC(C5)N6)nc(OCC5CN(Cc6ccc(-n7c(C(=O)NCC(F)(F)F)nnc7-c7cc(C(C)C)c(O)cc7O)cc6)C5)nc4c3F)c12` [Compound 175], for which the 50% inhibitory concentration (IC50) on KRAS(G12D)/SOS1 is under 100 nM. Moreover, the EC50 in test [1] and in test [2] was 100 to 1000 nM throughout.

`C#Cc1c(F)ccc2cc(O)cc(-c3ncc4c(N5CC6CNC(C6)C5)nc(OCC5(CN6CCN(C7CCN(Cc8ccc(-n9c(C(=O)NC(C)C(F)(F)F)nnc9-c9cc(C(C)C)c(O)cc9O)cc8)CC7)CC6)CC5)nc4c3F)c12` (stereo not drawn) [Compound 188] gave an IC50 against KRAS(G12D)/SOS1 of 100 to 1000 nM. In addition, the EC50 in test [1] and in test [2] was 100 to 1000 nM each time.

The compound `C#Cc1c(F)ccc2cc(O)cc(-c3ncc4c(N5CC6CNC(C6)C5)nc(OCC5(CN6CCC(C7CCN(Cc8ccc9c(c8)CN(C(=O)c8cc(O)c(C(C)C)cc8O)C9)CC7)CC6)CC5)nc4c3F)c12` (stereo not drawn) [Compound 187] had an IC50 against KRAS(G12D)/SOS1 of 100 to 1000 nM. Also, the EC50 in test [1] was over 1000 nM; in test [2], 100 to 1000 nM.

Compound `C#Cc1c(F)ccc2cc(O)cc(-c3ncc4c(N5CC6CCC(C5)N6)nc(OCc5ccc6c(c5)CN(C(=O)c5cc(C(C)C)c(O)cc5O)C6)nc4c3F)c12` [Compound 173] yielded a half-inhibitory concentration (IC50) against KRAS(G12D)/SOS1 of 100 to 1000 nM. The EC50 is over 1000 nM in test [1] and 100 to 1000 nM in test [2].

Take `C#Cc1c(F)ccc2cc(O)cc(-c3nc(OC)c4c(N5CC6CCC(C5)N6)nc(OCC5(CN6CCC(C7CCN(Cc8ccc9c(c8)CN(C(=O)c8cc(C(C)C)c(O)cc8O)C9)CC7)CC6)CC5)nc4c3F)c12` [Compound 186]: the IC50 at KRAS(G12D)/SOS1 is under 100 nM. Besides, the EC50 in test [1] and in test [2] was under 100 nM throughout.

For the compound `C#Cc1c(F)ccc2cc(O)cc(-c3ncc4c(N5CC6CCC(C5)N6)nc(OCC5CN(Cc6ccc(-n7c(C(=O)NC(C)C(F)(F)F)nnc7-c7cc(C(C)C)c(O)cc7O)cc6)C5)nc4c3F)c12` (stereo not drawn) [Compound 174], the IC50 on KRAS(G12D)/SOS1 was under 100 nM. Moreover, the EC50 in test [1] was over 1000 nM; in test [2] it was 100 to 1000 nM.

For the compound `C#Cc1c(F)ccc2cc(O)cc(-c3nc(OC)c4c(N5CC6CCC(C5)N6)nc(OCC5(CN6CCN(C7CCN(Cc8ccc9c(c8)CN(C(=O)c8cc(O)c(C(C)C)cc8O)C9)CC7)CC6)CC5)nc4c3F)c12` [Compound 170], the IC50 against KRAS(G12D)/SOS1 is under 100 nM. The concentration for a half-maximal effect (EC50) in test [1] and in test [2] was under 100 nM throughout.

`C#Cc1c(F)ccc2cc(O)cc(-c3ncc4c(N5CC6CCC(C5)N6)nc(OCC5(CN6CCC(N7CCN(Cc8ccc9c(c8)CN(C(=O)c8cc(C(C)C)c(O)cc8O)C9)CC7)CC6)CC5)nc4c3F)c12` [Compound 180] displayed an IC50 on KRAS(G12D)/SOS1 of under 100 nM. Also, the EC50 in test [1] and in test [2] was under 100 nM in each case.

At KRAS(G12D)/SOS1, `C#Cc1c(F)ccc2cc(O)cc(-c3nc(OC)c4c(N5CC6CCC(C5)N6)nc(OCC5(CN6CCOC(CNCc7ccc8c(c7)CN(C(=O)c7cc(C(C)C)c(O)cc7O)C8)C6)CC5)nc4c3F)c12` (stereo not drawn) [Compound 192] showed an IC50 of over 1000 nM. The EC50 in test [1] and in test [2] was 100 to 1000 nM throughout.

The compound `C#Cc1c(F)ccc2cc(O)cc(-c3ncc4c(N5CC6CCC(C5)N6)nc(OCC5(CN6CCC7(CCN(Cc8ccc(-n9c(C(=O)NC(C)C(F)(F)F)nnc9-c9cc(C(C)C)c(O)cc9O)cc8)CC7)CC6)CC5)nc4c3F)c12` (stereo not drawn) [Compound 183] registered an IC50 against KRAS(G12D)/SOS1 of under 100 nM. The EC50 in test [1] and in test [2] was under 100 nM throughout.

At KRAS(G12D)/SOS1, `C#Cc1c(F)ccc2cc(O)cc(-c3nc(OC)c4c(N5CC6CCC(C5)N6)nc(OCC5(CNCC6CN(Cc7ccc8c(c7)CN(C(=O)c7cc(C(C)C)c(O)cc7O)C8)CCO6)CC5)nc4c3F)c12` (stereo not drawn) [Compound 191] displayed an IC50 of under 100 nM. For the same compound, the EC50 in test [1] was 100 to 1000 nM; in test [2], under 100 nM.

For the compound `C#Cc1c(F)ccc2cc(O)cc(-c3ncc4c(N5CC6CCC(C5)N6)nc(OC5CN(Cc6ccc(-n7c(C(=O)NCC(F)(F)F)nnc7-c7cc(C(C)C)c(O)cc7O)cc6)C5)nc4c3F)c12` [Compound 179], the IC50 at KRAS(G12D)/SOS1 is 100 to 1000 nM. For the same compound, the EC50 was over 1000 nM in test [1] and 100 to 1000 nM in test [2].
